According to ChEMBL document CHEMBL1201862, “PubChem BioAssay data set” (2004):
The source made the active and inactive calls.

Columns and labels:
NS3 = NS3 (Hepatitis C virus, UniProt A3EZJ3); assay: PubChem AID 2173; set-up: species or system Hepacivirus hominis
[1] = mitochondrial function rescue without frataxin homolog – Friedreich's ataxia, plus single-dose screen, dose response (AID 1465); format: functional;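 note: yeast depleted of Yfh1p frataxin homolog grown on glycerol needing respiration; WST-1 tetrazolium dye reduction as measure of cellular dehydrogenase metabolic activity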
[2] = target: Neuropeptide Y receptor type 2 (Homo sapiens, UniProt P49146); assay: IC50 for human NPY-Y2 blockade – cell-based, counter-screen for NPY-Y1 antagonist project, dose response (AID 1278); format: functional
[3] = target: Neuropeptide Y receptor type 1 (Homo sapiens, UniProt P25929); assay: IC50 of human NPY-Y1 blockers – cell-based, dose response (AID 1277); format: functional
[4] = blockers of HIV-1 ZM109 envelope-driven cell-cell fusion – HeLa effector, CEM target cells, luciferase, cherry-pick, dose response (AID 652058); format: functional, cell-based;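 note: luciferase signal from HIV-1 Env mediated cell-cell fusion of effector and target cells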
Paired box protein Pax-8 = Paired box protein Pax-8 (Homo sapiens, UniProt Q06710); assay: PAX8 transcriptional activity inhibition in RMG-I – RMG-I cells, luciferase, cherry-pick, dose response (AID 687027); format: functional, cell-based;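 note: luciferase reporter driven by Pax8 target thyroperoxidase promoter measured by SteadyGlo luminescence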
Jurkat = assay: blockers of NF-kB activation in T cells – Jurkat, luciferase reporter, luminescence, B- and T-cell, dose response (AID 489004); format: functional, cell-based; details: Homo sapiens;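 note: NF-kB luciferase reporter Jurkat cells stimulated with PMA plus ionomycin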
[5] = alpha-synuclein stem-loop translation blockers – luminescence, H4 neuroglioblastoma cells, dose confirmation, confirmation (AID 2454); format: functional, cell-based;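 note: H4 neuroglioblastoma cells carrying an alpha-synuclein 5'UTR luciferase reporter; potency for inhibition of the luciferase signal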
[6] = Luminescence Cell-Based Dose Response HTS to Identify Inhibitors of 5'UTR Stem-Loop Driven Prion Protein mRNA Translation in H4 Neuroglioblastoma Cells. [Related pubchem assays: 1827 (Project Summary), 1813 (Primary HTS)]; format: functional
[7] = alpha-synuclein stem-loop luciferase translation blockers – H4 neuroglioma cells, luminescence, confirmation (AID 1988); format: functional, cell-based
[8] = HEK-293T viability loss, compound-treated – cell-based, uHTS hits, cytotoxicity control for B/T-cell NF-kB inhibitor project, dose response (AID 489019); format: functional;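 note: IC50 reflects cytotoxicity as loss of cell viability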
[9] = Luminescence-based counterscreen assay for KLF5 inhibitors: dose response cell-based high throughput screening assay to identify cytotoxic compounds using the IEC-6 intestinal epithelial cell line. [Related pubchem assays: 1700 (Primary screen.), 1834 (Confirmation screen.), 1858 (Summary AID.), 1905 (Counterscreen.)]; format: functional
[10] = luciferase reporter signal suppression in cells – H4 neuroglioma cells, luminescence, dose response (AID 1990); format: functional, cell-based
[11] = blockers of HIV-1 envelope-mediated cell-cell fusion – cherry-pick, dose response (AID 652057); format: functional, cell-based
[12] = HIV-1 AD8 envelope cell-cell fusion blockers – cherry-pick, dose response (AID 652062); format: functional, cell-based;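 note: luciferase signal from cell-cell fusion driven by HIV-1 clade B AD8 Env; potency is for inhibitors of fusion seen as a drop in luminescence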
cells = format: functional, cell-based
[13] = luciferase reporter signal reduction – luminescence, H4-C neuroglioblastoma cells, dose response (AID 2458); format: functional, cell-based;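 note: H4 neuroglioblastoma cells stably carrying a luciferase reporter gene fusion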
[14] = off-target signal loss in HeLa-CEM21 co-culture – HeLa F-luc CTL cells, cherry-picked, counter-screen for HIV-1 Env fusion inhibitor project, dose response (AID 652040); format: functional, cell-based;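 note: potency for signal decrease marking cytotoxic or nonspecific inhibition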
HT-1080 = assay: HT1080 cell viability loss – fluorescence readout (AID 620); format: functional, cell-based; details: Homo sapiens
[15] = target: Luciferin 4-monooxygenase (Photinus pyralis, UniProt P08659); assay: Counter Screen for Luciferase-based Assay Positives. [Related pubchem assays: 620, 618, 411 ]
HEK293 = assay: EBV LMP1 TES2 canonical NF-kB signalling blockers – cell-based, HEK293, luciferase, cherry-pick, dose response (AID 588343); format: functional; details: Homo sapiens
[16] = target: Lytic switch protein BZLF1 (Epstein-Barr virus (strain B95-8) (HHV-4) (Human herpesvirus 4), UniProt P03206); assay: inhibition of BZLF1 ZTA DNA binding – biochemical, fluorescence polarization, Epstein-Barr virus, 1536-well, counter-screen for EBNA-1 inhibitor project, dose response (AID 2377); set-up: species or system human gammaherpesvirus 4;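 note: fluorescence polarization of Cy5-labelled ZRE DNA probe bound by purified Zta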
[17] = target: Epstein-Barr nuclear antigen 1 (Epstein-Barr virus (strain B95-8) (HHV-4) (Human herpesvirus 4), UniProt P03211); assay: inhibition of EBV nuclear antigen 1 DNA binding – biochemical, fluorescence polarization, 1536-well, dose response (AID 2381); set-up: species or system human gammaherpesvirus 4;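 note: fluorescence polarization of a Cy5 DNA probe bound by EBNA-1 protein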
[18] = non-specific 3'UTR reporter inhibition in Clone20-Shn3RL – cell-based, Renilla luciferase, cherry-picked, counter-screen for Shn3 inhibitor project, dose response (AID 624133); format: functional
[19] = target: Potassium voltage-gated channel subfamily KQT member 2 (Rattus norvegicus, UniProt O88943, W236L); assay: potentiation of rat KCNQ2 current – cell-based, automated electrophysiology, mechanism study for KCNQ2 potentiator project, dose response (AID 2603); format: functional
[20] = target: T1, Replicative DNA helicase DnaB (Mycobacterium tuberculosis, UniProt P9WMR3); assay: DnaB intein splicing inhibitors, dose response, biochemical, cell-free fluorescence (AID 449749); format: functional
T1 sequence (P9WMR3 whole entry): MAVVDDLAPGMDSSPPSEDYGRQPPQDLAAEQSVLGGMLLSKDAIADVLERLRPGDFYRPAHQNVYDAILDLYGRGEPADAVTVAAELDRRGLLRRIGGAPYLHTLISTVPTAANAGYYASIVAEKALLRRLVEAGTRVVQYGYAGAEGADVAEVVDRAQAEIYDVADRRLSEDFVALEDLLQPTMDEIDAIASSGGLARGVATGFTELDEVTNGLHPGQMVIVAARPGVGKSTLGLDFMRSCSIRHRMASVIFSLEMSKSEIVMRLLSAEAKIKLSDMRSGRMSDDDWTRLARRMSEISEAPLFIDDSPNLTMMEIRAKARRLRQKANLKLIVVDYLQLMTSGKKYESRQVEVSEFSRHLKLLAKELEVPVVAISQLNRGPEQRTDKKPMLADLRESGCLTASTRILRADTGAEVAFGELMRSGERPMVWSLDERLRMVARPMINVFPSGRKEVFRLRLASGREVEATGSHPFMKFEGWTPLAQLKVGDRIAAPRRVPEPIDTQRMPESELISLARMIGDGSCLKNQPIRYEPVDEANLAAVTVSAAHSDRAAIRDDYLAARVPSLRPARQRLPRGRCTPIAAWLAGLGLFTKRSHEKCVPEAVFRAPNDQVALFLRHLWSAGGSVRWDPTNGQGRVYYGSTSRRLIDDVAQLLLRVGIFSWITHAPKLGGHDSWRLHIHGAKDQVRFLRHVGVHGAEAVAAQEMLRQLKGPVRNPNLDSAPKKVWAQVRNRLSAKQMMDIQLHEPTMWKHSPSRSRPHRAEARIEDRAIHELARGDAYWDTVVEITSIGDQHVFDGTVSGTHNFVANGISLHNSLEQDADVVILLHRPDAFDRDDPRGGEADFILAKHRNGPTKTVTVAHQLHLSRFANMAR

[21] = target: T2, High affinity choline transporter 1 (Homo sapiens, UniProt Q9GZV3); assay: human choline transporter blockers, potency – cell-based, 5-point CRC, membrane potential dye, dose response (AID 504840); format: functional
T2 sequence (Q9GZV3 whole entry): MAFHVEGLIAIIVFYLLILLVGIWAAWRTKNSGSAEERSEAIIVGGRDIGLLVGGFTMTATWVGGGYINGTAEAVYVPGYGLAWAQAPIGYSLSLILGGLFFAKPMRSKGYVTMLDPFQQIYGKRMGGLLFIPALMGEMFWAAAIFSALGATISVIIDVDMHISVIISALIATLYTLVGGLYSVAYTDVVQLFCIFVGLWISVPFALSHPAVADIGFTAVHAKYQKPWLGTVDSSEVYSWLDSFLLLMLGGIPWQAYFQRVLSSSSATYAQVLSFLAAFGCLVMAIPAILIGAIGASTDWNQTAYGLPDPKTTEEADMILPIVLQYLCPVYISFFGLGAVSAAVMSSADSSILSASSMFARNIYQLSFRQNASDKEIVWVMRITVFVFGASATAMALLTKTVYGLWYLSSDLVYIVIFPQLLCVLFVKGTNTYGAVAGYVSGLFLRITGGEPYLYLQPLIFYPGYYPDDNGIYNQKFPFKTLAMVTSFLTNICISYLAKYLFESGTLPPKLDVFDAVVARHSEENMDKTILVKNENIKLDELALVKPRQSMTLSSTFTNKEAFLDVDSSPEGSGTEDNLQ

Vero = assay: viability of Vero cells under compound – cytotoxicity control for flavivirus capping enzyme inhibitors (AID 588742); format: functional; details: Chlorocebus sabaeus
Genome polyprotein = Genome polyprotein (dengue virus type 2, UniProt P29990); assay: flavivirus cap methylation enzyme inhibition – biochemical, confirmation dose response, primary screen (AID 588689); format: functional
[22] = reduction of Shn3 3'UTR-driven luciferase in osteoblasts – cell-based, Clone20 osteoblasts, firefly luciferase, cherry-picked, dose response (AID 624132); format: functional;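 note: firefly luciferase luminescence from reporter carrying the Shn3 3'UTR in osteoblasts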
[23] = target: T3, Ubiquitin-conjugating enzyme E2 N (Homo sapiens, UniProt P61088); format: functional
T3 sequence (P61088 whole entry): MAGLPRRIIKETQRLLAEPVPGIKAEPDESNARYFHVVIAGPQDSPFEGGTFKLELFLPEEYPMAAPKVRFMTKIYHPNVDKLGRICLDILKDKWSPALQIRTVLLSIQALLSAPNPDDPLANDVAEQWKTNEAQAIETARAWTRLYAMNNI

Protein RecA = target: T4, Protein RecA (Mycobacterium tuberculosis, UniProt P9WHJ3); assay: Fluorescence Cell-Free Homogeneous Dose Retest to Identify Inhibitors of RecA-Intein Splicing Activity. [Related pubchem assays (depositor defined):AID2097, AID2223, AID489010, AID492950]; format: functional
T4 sequence (P9WHJ3 whole entry): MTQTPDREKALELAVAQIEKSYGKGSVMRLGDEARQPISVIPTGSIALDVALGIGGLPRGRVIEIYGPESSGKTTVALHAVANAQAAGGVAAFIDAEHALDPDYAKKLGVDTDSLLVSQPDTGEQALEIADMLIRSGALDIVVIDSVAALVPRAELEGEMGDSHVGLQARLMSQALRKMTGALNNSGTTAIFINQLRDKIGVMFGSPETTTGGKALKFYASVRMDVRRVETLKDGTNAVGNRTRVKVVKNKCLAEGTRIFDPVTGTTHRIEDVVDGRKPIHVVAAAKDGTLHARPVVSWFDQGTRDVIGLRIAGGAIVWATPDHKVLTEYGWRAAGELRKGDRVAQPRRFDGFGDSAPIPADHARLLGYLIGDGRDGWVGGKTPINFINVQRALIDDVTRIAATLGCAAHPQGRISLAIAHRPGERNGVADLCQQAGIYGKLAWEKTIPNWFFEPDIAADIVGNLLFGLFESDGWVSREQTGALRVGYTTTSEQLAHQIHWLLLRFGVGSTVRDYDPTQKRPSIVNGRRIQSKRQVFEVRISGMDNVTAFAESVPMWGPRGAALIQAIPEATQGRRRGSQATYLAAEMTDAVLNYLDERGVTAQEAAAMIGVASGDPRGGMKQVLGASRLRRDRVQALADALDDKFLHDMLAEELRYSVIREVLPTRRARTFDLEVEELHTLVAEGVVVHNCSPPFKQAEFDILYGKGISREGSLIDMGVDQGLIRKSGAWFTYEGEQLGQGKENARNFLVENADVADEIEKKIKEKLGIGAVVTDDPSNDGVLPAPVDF

Bcl-2-related protein A1 = target: T5, Bcl-2-related protein A1 (Mus musculus, UniProt Q07440); format: functional;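 note: confirmatory dose–response counterscreen on Bfl-1, used to check hits from a UBC13 polyubiquitin inhibitor campaign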
T5 sequence (Q07440 whole entry): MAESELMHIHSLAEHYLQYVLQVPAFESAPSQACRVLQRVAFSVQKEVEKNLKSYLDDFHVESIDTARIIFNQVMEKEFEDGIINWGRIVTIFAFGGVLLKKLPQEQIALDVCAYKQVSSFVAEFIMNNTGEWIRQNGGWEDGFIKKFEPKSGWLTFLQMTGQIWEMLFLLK

[24] = Shn3 3'UTR reporter signal decrease – cell-based, Clone20 osteoblasts, firefly luciferase, cherry-pick, set 2, Schnurri-3 inhibitor project, dose response (AID 720490); format: functional;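 note: actives lower the luminescence signal as inhibitors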
[25] = EF1alpha-driven Renilla reporter with control 3'UTR suppression – Clone20-Shn3RL cells, dual-Glo, cherry-pick, set 2, counter-screen for Shn3 3'UTR targeting project, dose response (AID 720724); format: functional, cell-based; details: Dual-Go Shn3RL
[26] = target: T3, Ubiquitin-conjugating enzyme E2 N; format: functional; remark: listed apart in the source
[27] = target: T2, High affinity choline transporter 1; assay: human choline transporter blockers, potency – cell-based, 10-point CRC, membrane potential dye, dose response (AID 588401); format: functional;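 note: membrane potential dye fluorescence of choline-evoked depolarization via CHT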
[28] = Shn3 transcript knock-down in Clone20 cells – cell-based, qPCR, cherry-pick, dose response (AID 743415); format: functional

Chain of Neuropeptide Y receptor type 2 (P49146 whole entry): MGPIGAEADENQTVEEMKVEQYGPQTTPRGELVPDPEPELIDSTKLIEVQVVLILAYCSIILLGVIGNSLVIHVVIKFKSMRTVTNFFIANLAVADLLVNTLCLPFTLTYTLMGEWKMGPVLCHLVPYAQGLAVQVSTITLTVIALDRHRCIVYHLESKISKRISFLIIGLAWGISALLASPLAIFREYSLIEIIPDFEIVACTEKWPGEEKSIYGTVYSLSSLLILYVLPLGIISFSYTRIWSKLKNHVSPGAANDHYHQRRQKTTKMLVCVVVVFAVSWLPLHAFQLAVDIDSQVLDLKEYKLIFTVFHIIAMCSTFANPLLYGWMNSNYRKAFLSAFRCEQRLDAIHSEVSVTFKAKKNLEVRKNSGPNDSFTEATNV
Chain of Lytic switch protein BZLF1 (P03206 whole entry): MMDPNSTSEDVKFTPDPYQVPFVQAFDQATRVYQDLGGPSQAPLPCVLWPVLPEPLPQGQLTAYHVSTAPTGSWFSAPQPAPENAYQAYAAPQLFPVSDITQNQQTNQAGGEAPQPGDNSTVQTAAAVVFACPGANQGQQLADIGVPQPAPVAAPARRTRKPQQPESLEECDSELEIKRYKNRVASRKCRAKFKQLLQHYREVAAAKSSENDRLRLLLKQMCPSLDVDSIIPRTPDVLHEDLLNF
Chain of Genome polyprotein (P29990 2492-3391 limits assumed): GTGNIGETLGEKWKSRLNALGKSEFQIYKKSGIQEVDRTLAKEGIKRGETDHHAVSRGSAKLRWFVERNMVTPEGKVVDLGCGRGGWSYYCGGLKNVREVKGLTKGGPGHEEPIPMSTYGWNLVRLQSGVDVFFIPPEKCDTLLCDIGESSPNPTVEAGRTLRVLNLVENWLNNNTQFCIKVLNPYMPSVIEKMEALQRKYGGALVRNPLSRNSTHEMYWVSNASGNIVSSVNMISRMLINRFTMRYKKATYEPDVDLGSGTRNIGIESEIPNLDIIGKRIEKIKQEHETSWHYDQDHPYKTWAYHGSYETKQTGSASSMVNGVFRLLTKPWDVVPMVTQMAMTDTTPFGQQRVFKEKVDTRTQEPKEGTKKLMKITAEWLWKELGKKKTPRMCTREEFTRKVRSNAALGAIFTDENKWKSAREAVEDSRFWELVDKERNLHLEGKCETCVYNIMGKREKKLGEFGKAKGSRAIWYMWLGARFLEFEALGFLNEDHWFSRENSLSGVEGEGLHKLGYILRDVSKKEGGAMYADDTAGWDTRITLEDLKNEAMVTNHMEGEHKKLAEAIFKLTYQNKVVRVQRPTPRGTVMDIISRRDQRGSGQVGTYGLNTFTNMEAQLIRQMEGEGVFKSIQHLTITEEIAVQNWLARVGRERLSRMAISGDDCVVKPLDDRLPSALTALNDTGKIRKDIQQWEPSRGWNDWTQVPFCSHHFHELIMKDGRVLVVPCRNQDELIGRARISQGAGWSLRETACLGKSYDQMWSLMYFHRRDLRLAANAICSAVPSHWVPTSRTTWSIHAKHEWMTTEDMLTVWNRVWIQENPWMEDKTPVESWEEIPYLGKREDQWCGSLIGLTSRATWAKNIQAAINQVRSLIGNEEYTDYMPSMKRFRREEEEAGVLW
Chain of Potassium voltage-gated channel subfamily KQT member 2 (O88943 whole entry W236L): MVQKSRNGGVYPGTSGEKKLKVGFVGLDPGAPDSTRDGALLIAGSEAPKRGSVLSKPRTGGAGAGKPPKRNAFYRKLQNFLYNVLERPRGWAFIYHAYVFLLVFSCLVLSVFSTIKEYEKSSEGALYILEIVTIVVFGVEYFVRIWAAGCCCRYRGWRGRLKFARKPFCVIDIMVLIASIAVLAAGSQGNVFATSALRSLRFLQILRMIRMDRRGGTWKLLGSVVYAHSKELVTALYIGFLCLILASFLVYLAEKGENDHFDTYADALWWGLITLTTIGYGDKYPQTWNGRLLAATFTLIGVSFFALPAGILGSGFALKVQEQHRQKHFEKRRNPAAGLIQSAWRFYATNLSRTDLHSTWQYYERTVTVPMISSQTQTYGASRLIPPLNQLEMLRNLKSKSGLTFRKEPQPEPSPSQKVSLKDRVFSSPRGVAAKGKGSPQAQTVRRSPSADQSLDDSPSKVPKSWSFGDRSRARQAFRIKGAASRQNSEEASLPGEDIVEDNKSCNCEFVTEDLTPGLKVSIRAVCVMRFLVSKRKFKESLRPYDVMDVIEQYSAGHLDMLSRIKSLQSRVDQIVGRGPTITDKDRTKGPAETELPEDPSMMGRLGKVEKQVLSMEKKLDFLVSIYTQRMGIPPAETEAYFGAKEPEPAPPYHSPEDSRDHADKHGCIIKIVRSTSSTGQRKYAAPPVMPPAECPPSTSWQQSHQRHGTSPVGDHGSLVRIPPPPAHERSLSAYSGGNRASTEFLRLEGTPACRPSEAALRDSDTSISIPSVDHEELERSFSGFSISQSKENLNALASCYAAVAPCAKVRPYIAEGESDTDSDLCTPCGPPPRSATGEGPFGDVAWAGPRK
Chain of NS3 (A3EZJ3 whole entry): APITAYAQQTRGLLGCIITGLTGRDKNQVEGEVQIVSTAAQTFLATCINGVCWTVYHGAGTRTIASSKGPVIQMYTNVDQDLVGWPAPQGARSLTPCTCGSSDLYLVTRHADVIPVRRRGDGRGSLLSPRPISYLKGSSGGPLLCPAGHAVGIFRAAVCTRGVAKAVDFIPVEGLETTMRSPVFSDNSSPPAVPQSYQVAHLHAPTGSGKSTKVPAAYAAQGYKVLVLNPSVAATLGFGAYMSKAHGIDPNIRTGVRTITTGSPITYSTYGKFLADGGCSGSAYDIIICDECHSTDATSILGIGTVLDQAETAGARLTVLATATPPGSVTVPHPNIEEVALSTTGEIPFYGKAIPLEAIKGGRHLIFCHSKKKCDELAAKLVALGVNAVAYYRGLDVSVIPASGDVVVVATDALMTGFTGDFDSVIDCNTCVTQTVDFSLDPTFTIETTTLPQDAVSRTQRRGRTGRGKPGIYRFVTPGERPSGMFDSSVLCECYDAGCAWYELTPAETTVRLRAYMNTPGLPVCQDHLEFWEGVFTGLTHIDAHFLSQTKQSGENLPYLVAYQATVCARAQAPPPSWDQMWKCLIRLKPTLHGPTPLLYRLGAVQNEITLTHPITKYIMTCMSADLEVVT
Chain of Luciferin 4-monooxygenase (P08659 whole entry): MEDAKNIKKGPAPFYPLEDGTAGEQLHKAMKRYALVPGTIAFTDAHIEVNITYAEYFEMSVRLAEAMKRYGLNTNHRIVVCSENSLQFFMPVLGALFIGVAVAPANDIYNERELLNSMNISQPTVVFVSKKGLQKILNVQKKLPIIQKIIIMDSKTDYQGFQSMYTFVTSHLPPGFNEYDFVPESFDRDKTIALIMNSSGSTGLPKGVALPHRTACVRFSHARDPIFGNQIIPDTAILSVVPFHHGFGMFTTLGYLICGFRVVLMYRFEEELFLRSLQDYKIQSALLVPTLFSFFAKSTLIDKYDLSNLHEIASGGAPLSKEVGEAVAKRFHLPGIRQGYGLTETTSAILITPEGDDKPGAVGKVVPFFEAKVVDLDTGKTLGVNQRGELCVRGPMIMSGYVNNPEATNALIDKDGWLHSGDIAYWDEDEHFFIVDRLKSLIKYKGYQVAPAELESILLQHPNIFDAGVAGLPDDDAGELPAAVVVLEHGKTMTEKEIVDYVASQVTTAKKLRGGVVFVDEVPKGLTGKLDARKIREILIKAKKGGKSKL
Chain of Paired box protein Pax-8 (Q06710 whole entry): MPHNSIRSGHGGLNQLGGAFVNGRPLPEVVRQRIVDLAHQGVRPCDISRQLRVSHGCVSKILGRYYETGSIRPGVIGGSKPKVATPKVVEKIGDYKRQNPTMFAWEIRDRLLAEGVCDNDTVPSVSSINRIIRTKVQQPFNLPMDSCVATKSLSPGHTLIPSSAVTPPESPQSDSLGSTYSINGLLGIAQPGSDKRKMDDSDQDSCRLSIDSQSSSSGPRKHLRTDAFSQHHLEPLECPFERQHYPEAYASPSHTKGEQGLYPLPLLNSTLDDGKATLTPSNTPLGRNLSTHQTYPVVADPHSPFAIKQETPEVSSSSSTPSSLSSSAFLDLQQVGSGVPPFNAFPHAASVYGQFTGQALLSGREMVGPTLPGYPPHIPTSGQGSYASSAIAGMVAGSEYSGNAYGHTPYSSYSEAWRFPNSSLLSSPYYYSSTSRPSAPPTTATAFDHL
Chain of Epstein-Barr nuclear antigen 1 (P03211 whole entry): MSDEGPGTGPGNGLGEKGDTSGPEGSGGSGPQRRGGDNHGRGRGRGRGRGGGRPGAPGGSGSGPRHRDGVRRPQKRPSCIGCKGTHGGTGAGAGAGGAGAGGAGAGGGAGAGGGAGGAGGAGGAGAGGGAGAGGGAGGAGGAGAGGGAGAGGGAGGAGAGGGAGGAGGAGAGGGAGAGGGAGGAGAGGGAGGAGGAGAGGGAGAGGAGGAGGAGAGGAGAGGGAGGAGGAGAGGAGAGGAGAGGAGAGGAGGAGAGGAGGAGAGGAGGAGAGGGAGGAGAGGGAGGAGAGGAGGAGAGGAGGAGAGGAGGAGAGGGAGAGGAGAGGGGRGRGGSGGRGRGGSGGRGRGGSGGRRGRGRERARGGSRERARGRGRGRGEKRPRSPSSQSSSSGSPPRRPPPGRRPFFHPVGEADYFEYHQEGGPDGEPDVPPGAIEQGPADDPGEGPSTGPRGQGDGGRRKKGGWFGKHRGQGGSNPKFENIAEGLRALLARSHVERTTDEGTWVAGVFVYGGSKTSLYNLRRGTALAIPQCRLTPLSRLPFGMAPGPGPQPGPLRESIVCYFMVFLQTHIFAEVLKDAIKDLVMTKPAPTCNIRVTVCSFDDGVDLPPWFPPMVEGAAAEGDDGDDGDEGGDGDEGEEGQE

Cc1cc(Cl)ccc1Oc1ccccc1C(=O)CC#N
active: IC50 (NS3) 3.54 µM

CCOc1ccc2nc(NN=C3C(=O)NC(=O)NC3=O)sc2c1
active: EC50 [1] > 100 µM

COc1ccc(C2N(c3ccc(Cl)cc3)N=C(C(C)=O)N(C)N2C(C)=O)cc1 (stereo not drawn)
> 35 µM (not active): IC50 [2] | IC50 [3]

O=C(NCCc1ccccc1F)c1ccc2c(c1)OCCO2
active: AC50 [4] 8.11 µM | AC50 (Paired box protein Pax-8) 2.18 µM | IC50 (Jurkat) 0.77 µM | EC50 [5] 0.151 µM | EC50 [6] < 0.1 µM | EC50 [7] 0.113 µM | EC50 [10] 0.16 µM | AC50 [11] 2.14 µM | AC50 [12] 1.25 µM | EC50 (cells) 0.316 µM | EC50 [13] 0.258 µM | AC50 [14] 3.21 µM
> 39.8 µM (not active): IC50 [9]
inactive: IC50 [8] > 80 µM

Cc1ccc(C(=O)Nc2cccc(C(=O)O)c2)cc1S(=O)(=O)N1CCCCC1
> 50 µM (not active): EC50 (HT-1080)
active: EC50 [15] < 0.2 µM | AC50 (HEK293) 3.76 µM

COc1ccc(-c2nonc2NC(=O)c2oc3ccc(F)cc3c2C)cc1OC
16.4 µM (not active): IC50 [17]
> 111 µM (not active): IC50 [16]

CCCc1nnc(NC(=O)c2nc(S(=O)(=O)Cc3ccc(C)cc3)ncc2Cl)s1
active: AC50 [18] 12.5 µM | EC50 [19] 3.02 µM | IC50 [21] 2.59 µM | CC50 (Vero) > 40 µM | IC50 (Genome polyprotein) > 100 µM | AC50 [22] 0.538 µM | IC50 [23] 14.8 µM | EC50 (Protein RecA) 86.7 µM | AC50 [24] 2.05 µM | AC50 [25] 40.7 µM | IC50 [26] 10.5 µM | IC50 [27] 3.36 µM | AC50 [28] 13.4 µM
inactive: AC50 [20] > 380 µM | IC50 (Bcl-2-related protein A1) > 20 µM
